Where a name gives a salt, the structure may show the parent alone. Read-outs that look alike come from different tables or passages of the source.
Test system: Acinetobacter baumannii ATCC17961
Assay: Antimicrobial susceptibility testing: 90% growth inhibitory concentration (IC90) determination in Iso-Sensitest broth, OD600 growth
Type: cell-based
How it was run: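 Growth inhibition is calculated during the logarithmic phase from OD600 readings taken every 20 minutes across 16 h at 35±2° C. Bacteria at ~5×10^(5) CFU/ml face twofold dilution series (e.g. 50 to 0.097 μM final).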

[1] = strain ATCC 17961, OD600 growth over 16 h, read-out: A. baumannii ATCC 17961 IC90
[2] = Acinetobacter baumannii, ATCC17961, 16 h, strain ATCC 17961, OD600 growth over 16 h, read-out: A. baumannii ATCC 17961 IC90
[3] = Acinetobacter baumannii, ATCC17961, 16 h, read-out: A. baumannii ATCC 17961 IC90 (uM), strain ATCC 17961, OD600 growth over 16 h

| SMILES | IC90 [2] [µM] | IC90 [3] [µM] | other results |
| --- | --- | --- | --- |
| N#CCn1cc(-c2cnc3c(Nc4ccc(C(=O)N5CCN(C(=O)NC6CNC6)CC5)c(Cl)c4)nccn23)c(C(F)(F)F)n1 [Example 214, N-(azetidin-3-yl)-4-[2-chloro-4-[[3-[1-(cyanomethyl)-3-(trifluoromethyl)pyrazol-4-yl]imidazo[1,2-a]pyrazin-8-yl]amino]benzoyl] piperazine-1-carboxamide formate] | – | – | IC90 [1]: 0.349 µM |
| CCc1cc(Nc2nccn3c(-c4c[nH]nc4C(F)(F)F)cnc23)ccc1C(=O)NCCNC(=O)[C@@H]1CCCN1 [Example 39, (2S)-N-[2-[[2-ethyl-4-[[3-[3-(trifluoromethyl)-1H-pyrazol-4-yl]imidazo[1,2-a]pyrazin-8-yl]amino]benzoyl]amino]ethyl] pyrrolidine-2-carboxamide] | 0.47 | – | – |
| N[C@H]1CC[C@@H](NC(=O)N2CCN(C(=O)c3ccc(Nc4nccn5c(-c6c[nH]nc6C(F)(F)F)cnc45)cc3Cl)CC2)C1 [Example 238, N-[(1R,3S)-3-aminocyclopentyl]-4-[2-chloro-4-[[3-[3-(trifluoromethyl)-1H-pyrazol-4-yl]imidazo[1,2-a]pyrazin-8-yl]amino]benzoyl] piperazine-1-carboxamide formate] | – | – | IC90 [1]: 0.2 µM |
| N#CCn1cc(-c2cnc3c(Nc4ccc(C(=O)NCC(=O)N[C@H]5CCNC5)c(Cl)c4)nccn23)c(C(F)(F)F)n1 [Example 731, 2-chloro-4-[[3-[1-(cyanomethyl)-3-(trifluoromethyl)pyrazol-4-yl]imidazo[1,2-a]pyrazin-8-yl]amino]-N-[2-oxo-2-[[(3S)-pyrrolidin-3-yl]amino]ethyl]benzamide formate] | – | 0.476 | – |
| CCc1cc(Nc2nccn3c(-c4cn(CC(F)F)nc4C(F)(F)F)cnc23)ccc1C(=O)NCCOCCN1CCOCC1 [Example 717, 4-((3-(1-(2,2-difluoroethyl)-3-(trifluoromethyl)-1H-pyrazol-4-yl)imidazo[1,2-a]pyrazin-8-yl)amino)-2-ethyl-N-(2-(2-morpholinoethoxy)ethyl)benzamide formate] | – | 0.434 | – |
| CCc1cc(Nc2nccn3c(-c4cn(CC5CCOC5)nc4C(F)(F)F)cnc23)ccc1C(=O)NCCOCCN (stereo not shown) [Example 307, N-[2-(2-aminoethoxy)ethyl]-2-ethyl-4-[[3-[1-(oxolan-3-ylmethyl)-3-(trifluoromethyl)pyrazol-4-yl]imidazo[1,2-a]pyrazin-8-yl]amino]benzamide formate] | – | 0.514 | – |
| CCc1cc(Nc2nccn3c(-c4c[nH]nc4C(F)(F)F)cnc23)ccc1C(=O)NCCOCC(C)(C)N [Example 176, N-[2-(2-amino-2-methylpropoxy)ethyl]-2-ethyl-4-[[3-[3-(trifluoromethyl)-1H-pyrazol-4-yl]imidazo[1,2-a]pyrazin-8-yl]amino]benzamide hydrochloride] | 0.409 | – | – |
| CN(C)CCNC(=O)CNC(=O)c1ccc(Nc2nccn3c(-c4cn(CC#N)nc4C(F)(F)F)cnc23)cc1Cl [Example 693, 2-chloro-4-[[3-[1-(cyanomethyl)-3-(trifluoromethyl)pyrazol-4-yl]imidazo[1,2-a]pyrazin-8-yl]amino]-N-[2-[2-(dimethylamino)ethylamino]-2-oxo-ethyl]benzamide formate] | – | 0.358 | – |
| Cc1cc(Nc2nccn3c(-c4cn(CC#N)nc4C(F)(F)F)cnc23)ccc1C(=O)NCCCNC(=O)[C@@H]1C[C@@H](O)CN1 [Example 367, (2S,4R)-N-[3-[[4-[[3-[1-(cyanomethyl)-3-(trifluoromethyl)pyrazol-4-yl]imidazo[1,2-a]pyrazin-8-yl]amino]-2-methylbenzoyl]amino]propyl]-4-hydroxypyrrolidine-2-carboxamide formate] | – | 0.468 | – |
| NCCC(=O)NCCNC(=O)c1ccc(Nc2nccn3c(-c4c[nH]nc4C(F)(F)F)cnc23)cc1Cl [Example 299, N-[2-(3-aminopropanoylamino)ethyl]-2-chloro-4-[[3-[3-(trifluoromethyl)-1H-pyrazol-4-yl]imidazo[1,2-a]pyrazin-8-yl]amino]benzamide] | 0.699 | – | – |
| CCc1cc(Nc2nccn3c(-c4c[nH]nc4C(F)(F)F)cnc23)ccc1C(=O)NCCNC(=O)[C@@H]1C[C@@](O)(CC)CN1 [Example 435, (2S,4S)-4-ethyl-N-[2-[[2-ethyl-4-[[3-[3-(trifluoromethyl)-1H-pyrazol-4-yl]imidazo[1,2-a]pyrazin-8-yl]amino]benzoyl]amino]ethyl]-4-hydroxypyrrolidine-2-carboxamide formate] | – | 2.69 | – |

Further lines, with some results ahead:

| IC90 [2] [µM] | SMILES | IC90 [3] [µM] | other results |
| --- | --- | --- | --- |
| 0.88 | O=C(c1ccc(Nc2nccn3c(-c4c[nH]nc4C(F)(F)F)cnc23)cc1F)N1CCNCC1 [Example 805, (2-fluoro-4-((3-(3-(trifluoromethyl)-1H-pyrazol-4-yl)imidazo[1,2-α]pyrazin-8-yl)amino)phenyl)(piperazin-1-yl)methanone hydrochloride] | – | – |
| 0.31 | N#CCn1cc(-c2cnc3c(Nc4ccc(C(=O)N5CCN(C(=O)[C@H]6CC[C@@H](N)C6)CC5)c(F)c4)nccn23)c(C(F)(F)F)n1 [Example 807, 2-(4-(8-((4-(4-((1S,3R)-3-aminocyclo-pentane-1-carbonyl)piperazin-1-carbonyl)-3-fluorophenyl)amino)imidazo [1,2-a]pyrazin-3-yl)-3-(trifluoromethyl)-1H-pyrazol-1-yl)acetonitrile hydrochloride] | – | – |
| 0.16 | O=C(c1ccc(Nc2nccn3c(-c4c[nH]nc4C(F)(F)F)cnc23)cc1Cl)N1CCN(C(=O)[C@@H]2CCNC2)CC1 [Example 197, [2-chloro-4-[[3-[3-(trifluoromethyl)-1H-pyrazol-4-yl]imidazo[1,2-a]pyrazin-8-yl]amino]phenyl]-[4-[(3R)-pyrrolidine-3-carbonyl]piperazin-1-yl]methanone] | – | – |
| 1.56 | CCc1cc(Nc2nccn3c(-c4cn(CCN)nc4C(F)(F)F)cnc23)ccc1C(=O)NC [Example 283, 4-[[3-[1-(2-aminoethyl)-3-(trifluoromethyl)pyrazol-4-yl]imidazo[1,2-a]pyrazin-8-yl]amino]-2-ethyl-N-methylbenzamide] | – | – |
| 1.23 | N[C@@H]1CCN(C(=O)c2ccc(Nc3nccn4c(-c5c[nH]nc5C(F)(F)F)cnc34)cc2Cl)C1 [Example 324, [(3R)-3-aminopyrrolidin-1-yl]-[2-chloro-4-[[3-[3-(trifluoromethyl)-1H-pyrazol-4-yl]imidazo[1,2-a]pyrazin-8-yl]amino]phenyl]methanone] | – | – |
| 0.194 | CCc1cc(Nc2nccn3c(-c4cn(CCF)nc4C(F)(F)F)cnc23)ccc1C(=O)NCCCN [Example 56, N-(3-aminopropyl)-2-ethyl-4-[[3-[1-(2-fluoroethyl)-3-(trifluoromethyl)pyrazol-4-yl]imidazo[1,2-a]pyrazin-8-yl]amino]benzamide] | – | – |
| 0.049 | C#CCn1cc(-c2cnc3c(Nc4ccc(C(=O)NCCOC[C@H](C)N)c(CC)c4)nccn23)c(C(F)(F)F)n1 [Example 147, N-[2-[(2S)-2-aminopropoxy]ethyl]-2-ethyl-4-[[3-[1-prop-2-ynyl-3-(trifluoromethyl)pyrazol-4-yl]imidazo[1,2-a]pyrazin-8-yl]amino]benzamide] | – | – |
| 0.506 | CCc1cc(Nc2nccn3c(-c4cn(CCF)nc4C(F)(F)F)cnc23)ccc1C(=O)N[C@H](C)CN [Example 110, N-[(2R)-1-aminopropan-2-yl]-2-ethyl-4-[[3-[1-(2-fluoroethyl)-3-(trifluoromethyl)pyrazol-4-yl]imidazo[1,2-a]pyrazin-8-yl]amino]benzamide] | – | – |

Source: patent US20230203043A1, “NOVEL IMIDAZOPYRAZINE DERIVATIVES” (Hoffmann-La Roche Inc., priority 2020, published 2023)
